The NIST ThermoML archive (doi:10.1021/acs.jced.8b01247)
Numbers after ± are expanded uncertainties.

Columns and labels:
[1] = Boiling temperature at pressure P; settings: Liquid, Ebulliometric method (Recirculating still)
[2] = 337.83 K; Liquid; Ebulliometric method (Recirculating still)

Structure (SMILES)	Boiling temperature at pressure P ([1]; 101.3 kPa) [°C]	Boiling temperature at pressure P ([1]; 166.8 kPa) [°C]	Boiling temperature at pressure P ([1]; 217.3 kPa) [°C]	Boiling temperature at pressure P ([1]; 257 kPa) [°C]	Boiling temperature at pressure P ([1]; 313.1 kPa) [°C]	Boiling temperature at pressure P ([1]; 387.5 kPa) [°C]	vapor or sublimation pressure [2] [kPa]
CCC(C)OCOC (configuration not stated) [2-(methoxymethoxy)butane]	109.7 ± 0.87	129.1 ± 1.3	139.94 ± 1.2	146.93 ± 1.2	155.67 ± 1.3	165.49 ± 1.5	
CO [methanol]							101.3 ± 2.3
